Measured values as given in patent publication US8796320B2, “1,3,4-Oxadiazole-2-carboxamide compound” (General Incorporated Association Pharma Valley Project …, priority 2009, dated 2014).
Structures can show the parent of a compound that is named as a salt.

Key:
[1] = test system: human lymphoma SCC-3 cells; assay: Evaluation using human lymphoma-transplanted nude mice; assay type: in vivo, nude mouse; settings: 80 mg/kg orally once a day for 5 days, p < 0.05
Description: 1×10^6 human lymphoma SCC-3 cells (containing Matrigel) were subcutaneously transplanted to the flank part of each 6-week-old male nude mouse (BALB/cA-nu/nu, CLEA Japan, Inc.). After the transplantation, the tumor volumes [major axis (mm) and minor axis (mm)] of the SCC-3 cancer-bearing mice were measured using an electronic vernier caliper (CD-10, Mitutoyo Corp.), and tumor volumes [mm^3: (major axis)×(minor axis)^2/2] were calculated. SCC-3 cancer-bearing mice whose tumor volume reached 50 to 300 mm^3 were selected and divided based on the tumor volumes into groups each containing 5 individuals. A test compound was suspended in a 0.5% methylcellulose solution and orally administered at a dose of 0.01 mL/g body weight once a day for 5 days (Day 0 (administration initiation day) to Day 4). To a control group, none was administered. The tumor volumes of the SCC-3 cancer-bearing mice were measured every day from the initiation of test compound administration to evaluate antitumor effect. The antitumor effect was assessed by calculating T/C (%) values according to the following formula: • V: tumor volume on every assay day • V0: tumor volume on the administration initiation day (V/V0 of the test compound group)/(V/V0 of the control group)×100
Validity determination criteria for this system adopted the method of Inaba, et al. (Cancer, 1989, 64, 1577-1582).

STAT3 = STAT3 transcription inhibition test (reporter gene method); assay type: cell-based; settings: Homo sapiens; compound at 100 μM; STAT3 reporter HeLa stable cell line, oncostatin M 10 ng/mL, 4 hours; read-out: STAT3 transcription inhibitory activity (%)
Description: The inhibition of STAT3 transcription was evaluated by using STAT3 reporter HeLa stable cell line (Panomics Inc., catalog No. RC0003), a cell line for the reporter gene method, and performing the following method according to the appendix included therein.
STAT3, reporter HeLa stable cell line subcultured and maintained in a Dulbecco's modified Eagle's medium (DMEM) containing 10% fetal bovine serum, 100 units/mL penicillin, and 100 μg/mL streptomycin was inoculated at a concentration of 40000 cells/well to a 96-well plate (white) and attached to the plate by overnight incubation at 37° C. under 5% CO2. After addition of each evaluation compound adjusted to various concentrations (adjusted with a DMSO solution), the cells were precultured for 1 hour. Then, oncostatin M for activating STAT3 was added at a final concentration 10 ng/mL, and the cells were further cultured at 37° C. under 5% CO2 for 4 hours. Luciferase activity derived from the cells was determined using Steady-Glo Luciferase Assay System (Promega Corp.), and STAT3 transcriptional activity scores were calculated according to the following formula: STAT3 transcriptional activity score (%)=100×(Lchem−L0)/(LDMSO−L0) • L0: luminescence intensity obtained without stimulation with oncostatin M • Lchem: luminescence intensity obtained by the addition of a test sample • LDMSO: luminescence intensity obtained by the addition of only a solvent for dissolving a test sample
The test results were indicated in the rate of inhibition of STAT3 transcription by each compound at a concentration of 100 μM.

[2] = test system: Human lymphoma SCC-3 cells; assay: SCC-3 cell growth inhibition test (MTT method); assay type: cell-based; settings: 72-hour culture
Description: Human lymphoma SCC-3 cells purchased from Japan Health Sciences Foundation were cultured for […] at a density of 5000 cells/well in a 96-well plate with RPMI1640 (Sigma-Aldrich Corp.) containing 10% fetal bovine serum (FBS; GIBCO) as a culture medium.
Simultaneously with cell inoculation, each test compound diluted to various concentrations with an RPMI medium was added to each well. After 72-hour culture, cell growth inhibitory activity was determined by the MTT method (J. Immunol. Methods, 1993, 65, 581-593) using a microplate reader (NJ-2300, BioTek Instruments, Inc.).
The test results were indicated in a concentration (IC50) at which 50% cell growth was inhibited.

MDA-MB-468 = MDA-MB-468 cell growth inhibitory activity; assay type: cell-based; settings: Homo sapiens; compound at 20 μM; MDA-MB-468, 72 hours
Description: MDA-MB-468 diluted with phenol red-free DMEM/F-12 (GIBCO; 10% FBS, 20 units/ml penicillin/streptomycin) was inoculated at a concentration of 2000 cells/well to a 96-well plate (Greiner Bio-One) and cultured overnight at 37° C. in the presence of 5% CO2. Then, a test sample solution (containing 2 (v/v)% DMSO) adjusted to 10 μM was added thereto at a concentration of 10 μL/well and contacted with the cells at 37° C. for 72 hours in the presence of 5% CO2. Each well was washed three times with a medium. Then, after addition of 100 μL/well of a medium and 20 μL/well of CellTiter 96 AQueous, One Solution Reagent (Promega Corp.), the cells were incubated at 37° C. for 2 hours in the presence of 5% CO2. Absorbance at 495 nm was measured using Multiplate reader (Molecular Devices, Inc.), and the rate of inhibition of cell growth was calculated according to the following formula: Rate of inhibition of cell growth (%)=100−100×(Abschem−bkgd)/(AbsDMSO−bkgd) • Abschem: absorbance obtained by the addition of a test sample • AbsDMSO: absorbance obtained by the addition of only a solvent for test sample dissolution • bkgd: absorbance obtained by the addition of CellTiter 96 AQueous One Solution Reagent to a medium for cell culture
The test results were indicated in the rate of inhibition of cell growth by each compound at a concentration of 20 μM.

SMILES	T/C (%) ([1]; day 11 after administration)	inhibition at 100 µM (STAT3) [%]	IC50 [2] [nM]	inhibition at 20 µM (MDA-MB-468) [%]	T/C (%) ([1]; day 6 after administration)	T/C (%) ([1]; day 18 after administration)
CC(C)(C)c1ccc(-c2cccc(C(=O)Nc3nnc(-c4ccco4)o3)c2)cc1 [Compound Ia-14, 4′-tert-Butyl-N-[5-(2-furyl)-1,3,4-oxadiazol-2-yl]-3-biphenylcarboxamide]	57	57	–	–	–	–
O=Cc1ccc(-c2cccc(C(=O)Nc3nnc(-c4ccco4)o3)c2)cc1 [Compound Ia-17, 4′-Formyl-N-[5-(2-furyl)-1,3,4-oxadiazol-2-yl]-3-biphenylcarboxamide]	–	> 100	4000	54	–	–
N#Cc1ccc(-c2cccc(C(=O)Nc3nnc(-c4ccco4)o3)c2)cc1 [Compound Ia-21, 4′-Cyano-N-[5-(2-furyl)-1,3,4-oxadiazol-2-yl]-3-biphenylcarboxamide]	–	62	1700	91	–	–
CCCCOC(=O)c1ccc(-c2cccc(C(=O)Nc3nnc(-c4ccco4)o3)c2)cc1 [Compound Ia-23, 4′-n-Butoxycarbonyl-N-[5-(2-furyl)-1,3,4-oxadiazol-2-yl]-3-biphenylcarboxamide]	–	–	–	–	55	–
NS(=O)(=O)c1ccc(-c2cccc(C(=O)Nc3nnc(-c4ccco4)o3)c2)cc1 [Compound Ia-25, N-[5-(2-Furyl)-1,3,4-oxadiazol-2-yl]-4′-sulfamoyl-3-biphenylcarboxamide]	–	70	53000	–	–	–
Cn1ccc2ccc(-c3cccc(C(=O)Nc4nnc(-c5ccco5)o4)c3)cc21 [Compound Ia-43, N-[5-(2-Furyl)-1,3,4-oxadiazol-2-yl]-3-(1-methyl-6-indolyl)benzenecarboxamide]	–	74	1800	–	–	–
CN1CCc2cc(-c3cccc(C(=O)Nc4nnc(-c5ccco5)o4)c3)ccc21 [Compound Ia-44, N-[5-(2-Furyl)-1,3,4-oxadiazol-2-yl]-3-(1-methyl-5-indolinyl)benzenecarboxamide]	–	58	1800	–	–	–
Cn1ccc2cc(-c3cccc(C(=O)Nc4nnc(-c5ccco5)o4)c3)ccc21 [Compound Ia-50, N-[5-(2-Furyl)-1,3,4-oxadiazol-2-yl]-3-(1-methyl-5-indolyl)benzenecarboxamide]	–	> 100	1100	51	–	–
O=C(Nc1nnc(-c2ccco2)o1)c1cccc(-c2ccc(-c3ccccc3)c(F)c2)c1 [Compound Ia-76, 3′-Fluoro-N-[5-(2-furyl)-1,3,4-oxadiazol-2-yl]-3-(p-terphenyl)carboxamide]	–	69	200	72	–	–
CCc1ccc(-c2ccc(-c3cccc(C(=O)Nc4nnc(-c5ccco5)o4)c3)cc2)cc1 [Compound Ia-78, 4″-Ethyl-N-[5-(2-Furyl)-1,3,4-oxadiazol-2-yl]-3-(p-terphenyl)carboxamide]	–	70	< 100	64	–	–
O=C(Nc1nnc(-c2ccco2)o1)c1cccc(-c2ccc(-c3ccc4ccccc4c3)cc2)c1 [Compound Ia-83, N-[5-(2-Furyl)-1,3,4-oxadiazol-2-yl]-4′-(2-naphthyl)-3-biphenylcarboxamide]	–	75	< 100	71	–	–
O=C(Nc1nnc(-c2ccco2)o1)c1cccc(-c2ccc(C3CCCCC3)cc2)c1 [Compound Ia-84, 4′-Cyclohexyl-N-[5-(2-furyl)-1,3,4-oxadiazol-2-yl]-3-biphenylcarboxamide]	–	74	< 100	68	–	–
O=C(Nc1nnc(-c2ccco2)o1)c1cccc(-c2ccc(N3CCOCC3)cc2)c1 [Compound Ia-87, N-[5-(2-Furyl)-1,3,4-oxadiazol-2-yl]-4′-morpholino-3-biphenylcarboxamide formate]	–	92	600	–	–	–
O=C(Nc1nnc(-c2ccco2)o1)c1cc(-c2ccccc2)nc2nc(N3CCCCC3)sc12 [Compound Ib-1, N-[5-(2-Furyl)-1,3,4-oxadiazol-2-yl]-5-phenyl-2-piperidino-7-thiazolo[4,5-b]pyridinecarboxamide]	–	> 100	520	96	–	52
COc1ccc(-c2cc(C(=O)Nc3nnc(-c4ccco4)o3)c3sc(N4CCCCC4)nc3n2)cc1OC [Compound Ib-4, N-[5-(2-Furyl)-1,3,4-oxadiazol-2-yl]-5-(3,4-dimethoxyphenyl)-2-piperidino-7-thiazolo[4,5-b]pyridinecarboxamide]	–	> 100	700	78	–	–
COc1cc([N+](=O)[O-])ccc1-c1ccc(C(=O)Nc2nnc(-c3ccco3)o2)o1 [Compound Ic-18, N-[5-(2-Furyl)-1,3,4-oxadiazol-2-yl]-5-(2-methoxy-4-nitrophenyl)-2-furancarboxamide]	–	–	16000	76	–	–
